According to PubChem BioAssay AID1963841 (Molecular Pharmacology Branch, DTP, NCI, 2024):

System: 439559-082-T-J2-PDC spheroid viability
Test: Anticancer human tumor 439559-082-T-J2-PDC patient-derived colon adenocarcinoma cell line growth inhibition [POLQ]
Settings: spheroids with HUVEC and MSC; for IC50: curve of first compound; for viability, T/C: stronger effect = lower value
Summary of the method: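 PDC + HUVEC + MSC complex spheroids; POLQ inhibitors ± partner drugs; top conc. at/near clinical Cmax, else 10 microM (SN-38 1 microM), half-log dilutions; 37 degrees C, 5% CO2.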

[1] = second compound 0.0316 µM, first compound 0.0316 µM
[2] = second compound 0.0316 µM, first compound 0.1 µM
[3] = second compound 0.1 µM, first compound 0.0316 µM
[4] = second compound 0.1 µM, first compound 0.1 µM
[5] = second compound 0.316 µM, first compound 0.0316 µM
[6] = second compound 0.316 µM, first compound 0.1 µM
[7] = second compound 1 µM, first compound 0.0316 µM
[8] = second compound 1 µM, first compound 0.1 µM
[9] = second compound 3.16 µM, first compound 0.0316 µM
[10] = second compound 3.16 µM, first compound 0.1 µM
[11] = second compound 10 µM, first compound 0.0316 µM
[12] = second compound 10 µM, first compound 0.1 µM
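Also: spheroids exposed to compounds for seven days before readout.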
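For viability, T/C in this document: 100% = DMSO vehicle control viability.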

CC[C@@]1(O)C(=O)OCc2c1cc1n(c2=O)Cc2cc3c(CN(C)C)c(O)ccc3nc2-1 + Cc1cccc(N(C)C(=O)C2C(O)CCN2c2nc(C)cc(C(F)(F)F)c2C#N)c1
IC50 (second compound 0.0316 µM): > 0.1 µM
IC50 (second compound 0.1 µM): > 0.1 µM
IC50 (second compound 0.316 µM): > 0.1 µM
IC50 (second compound 1 µM): > 0.1 µM
IC50 (second compound 3.16 µM): > 0.1 µM
IC50 (second compound 10 µM): > 0.1 µM
viability, T/C (second compound 0.0316 µM, first compound 0.000316 µM): 94.1%
viability, T/C (second compound 0.0316 µM, first compound 0.001 µM): 101%
viability, T/C (second compound 0.0316 µM, first compound 0.00316 µM): 96%
viability, T/C (second compound 0.0316 µM, first compound 0.01 µM): 97.2%
viability, T/C [1]: 92.2%
viability, T/C [2]: 85%
viability, T/C (second compound 0.1 µM, first compound 0.000316 µM): 113%
viability, T/C (second compound 0.1 µM, first compound 0.001 µM): 105%
viability, T/C (second compound 0.1 µM, first compound 0.00316 µM): 93.7%
viability, T/C (second compound 0.1 µM, first compound 0.01 µM): 103%
viability, T/C [3]: 97.3%
viability, T/C [4]: 79.1%
viability, T/C (second compound 0.316 µM, first compound 0.000316 µM): 98.1%
viability, T/C (second compound 0.316 µM, first compound 0.001 µM): 112%
viability, T/C (second compound 0.316 µM, first compound 0.00316 µM): 94.9%
viability, T/C (second compound 0.316 µM, first compound 0.01 µM): 89.8%
viability, T/C [5]: 84.9%
viability, T/C [6]: 83.4%
viability, T/C (second compound 1 µM, first compound 0.000316 µM): 104%
viability, T/C (second compound 1 µM, first compound 0.001 µM): 96.5%
viability, T/C (second compound 1 µM, first compound 0.00316 µM): 93.1%
viability, T/C (second compound 1 µM, first compound 0.01 µM): 93%
viability, T/C [7]: 90.3%
viability, T/C [8]: 80.9%
viability, T/C (second compound 3.16 µM, first compound 0.000316 µM): 96.2%
viability, T/C (second compound 3.16 µM, first compound 0.001 µM): 101%
viability, T/C (second compound 3.16 µM, first compound 0.00316 µM): 98.9%
viability, T/C (second compound 3.16 µM, first compound 0.01 µM): 93.5%
viability, T/C [9]: 89.9%
viability, T/C [10]: 76.5%
viability, T/C (second compound 10 µM, first compound 0.000316 µM): 93.2%
viability, T/C (second compound 10 µM, first compound 0.001 µM): 89.4%
viability, T/C (second compound 10 µM, first compound 0.00316 µM): 92.8%
viability, T/C (second compound 10 µM, first compound 0.01 µM): 91.6%
viability, T/C [11]: 90.3%
viability, T/C [12]: 75%

COc1ccc([C@@H](O)c2cc(-c3ncnc4cc(N5CCOCC5)ccc34)c(F)cc2Cl)nn1 + Nc1ccc(C#CCN(C(=O)Cc2ncc(C(F)(F)F)cc2C(F)(F)F)c2ccc(F)cc2)nn1
IC50 (second compound 0.0316 µM): > 10 µM
IC50 (second compound 0.1 µM): > 10 µM
IC50 (second compound 0.316 µM): > 10 µM
IC50 (second compound 1 µM): > 10 µM
IC50 (second compound 3.16 µM): > 10 µM
IC50 (second compound 10 µM): > 10 µM
viability, T/C [1]: 105%
viability, T/C [2]: 86%
viability, T/C (second compound 0.0316 µM, first compound 0.316 µM): 89.1%
viability, T/C (second compound 0.0316 µM, first compound 1 µM): 89.4%
viability, T/C (second compound 0.0316 µM, first compound 3.16 µM): 84%
viability, T/C (second compound 0.0316 µM, first compound 10 µM): 87.5%
viability, T/C [3]: 102%
viability, T/C [4]: 93.2%
viability, T/C (second compound 0.1 µM, first compound 0.316 µM): 92.7%
viability, T/C (second compound 0.1 µM, first compound 1 µM): 88.1%
viability, T/C (second compound 0.1 µM, first compound 3.16 µM): 78%
viability, T/C (second compound 0.1 µM, first compound 10 µM): 87.3%
viability, T/C [5]: 119%
viability, T/C [6]: 105%
viability, T/C (second compound 0.316 µM, first compound 0.316 µM): 104%
viability, T/C (second compound 0.316 µM, first compound 1 µM): 79.5%
viability, T/C (second compound 0.316 µM, first compound 3.16 µM): 88.9%
viability, T/C (second compound 0.316 µM, first compound 10 µM): 81%
viability, T/C [7]: 95%
viability, T/C [8]: 106%
viability, T/C (second compound 1 µM, first compound 0.316 µM): 85.2%
viability, T/C (second compound 1 µM, first compound 1 µM): 83.7%
viability, T/C (second compound 1 µM, first compound 3.16 µM): 86.1%
viability, T/C (second compound 1 µM, first compound 10 µM): 86.3%
viability, T/C [9]: 90.1%
viability, T/C [10]: 107%
viability, T/C (second compound 3.16 µM, first compound 0.316 µM): 90.7%
viability, T/C (second compound 3.16 µM, first compound 1 µM): 80.2%
viability, T/C (second compound 3.16 µM, first compound 3.16 µM): 83.7%
viability, T/C (second compound 3.16 µM, first compound 10 µM): 87.8%
viability, T/C [11]: 94.1%
viability, T/C [12]: 90%
viability, T/C (second compound 10 µM, first compound 0.316 µM): 90.1%
viability, T/C (second compound 10 µM, first compound 1 µM): 99.7%
viability, T/C (second compound 10 µM, first compound 3.16 µM): 81.8%
viability, T/C (second compound 10 µM, first compound 10 µM): 77.4%
